From US20250231157A1, “METHOD FOR DETERMINING THE PARTITION OF NAPHTHENIC ACIDS FROM A PRODUCTION WATER MIMICKING SYSTEM AND MIMICKING SYSTEM” (PETRÓLEO BRASILEIRO S.A. – PETROBRAS, priority 2023, published 2025)
Values joined by “and” are separate entries in the source; they are usually repeats but may differ in a detail not shown here. Equal values may be shown once.

Assays:
[1] = Partition equilibrium (migration to aqueous phase) heptol/water under pressure and temperature, central composite design, potentiometric titration; format: physicochemical; conditions: for Migration, Predicted: model value
Protocol: Three multivariate experimental designs (central composite designs) were performed in which the variables pressure (up to 1 MPa) and temperature (between 25° C. and 80° C.) were considered independent variables, with the migration of three acidic species as the response factor: benzoic, pentanoic and cyclohexanepentanoic acid. For this purpose, 5 levels were defined and gave rise to 10 experiments for each acidic species (Table 4), added to two control experiments (with higher pressure and temperature, as well as in the absence of pressure and at room temperature).
The experiments were performed with constant salinity of 3.5% (m·v^−1), constant heptol fraction (70:30, for heptane and toluene), and acidic species concentration of 0.03 M for benzoic and pentanoic acid, and 0.01 M for cyclohexanepentanoic acid. The results were evaluated with 95% confidence, using a response surface to estimate the maximum observable effect in each case, provided that the mathematical correlation was equal to or greater than R^2: 0.75.

[2] = Partition equilibrium with addition of calcium and strontium salts to the aqueous phase; format: physicochemical
Protocol: The addition of salts to the reaction system is of fundamental importance when one intends to mimic field conditions. In this sense, in addition to continuing the study of the salinity effect (Example 4), the insertion of salts containing Ca^2+ and Sr^2+ ions, known to be present in seawater, was tested. To this end, the projects were based on the literature (Zheng, J. et al. Offshore produced water management: A review of current practice and challenges in harsh/Arctic environments. Mar. Pol. Bul. 2016, 104, 7-19) and four concentrations of each of the two ions were evaluated (400.0, 1200.0, 2600.0 and 9000.0 mg·L^−1), maintaining salinity at 3.5% (m·v^−1).
In short, the experimental results were generated in triplicate, using 99% NaCl to add salinity to the aqueous fraction and PA calcium chloride and PA strontium chloride to add calcium and strontium, respectively.
The addition of calcium and strontium to the reaction system, in the form of salts, aims at mimicking the real scenario in which both species are present (regardless of the salinity of the medium), especially in the well condition. This study aimed at understanding the effect (on the migration of acids to the organic phase) of this ion in the system also at concentrations higher than 10 mM. Finally, the experiments (in triplicate) with divalent strontium ions followed the same rationale.

[3] = Partition equilibrium in the presence of surfactants (TBA, CTA, TMA); format: physicochemical
Description: The presence of chemical compounds usually added in the chain of unit operations of oil extraction and production, such as demulsifiers and surfactants, can affect the partition equilibrium of species in this water/oil system. In order to understand the extent of this effect, as well as discern the relevance of the chemical structure on this effect, the following items were chosen: • Dissolvan 961 (Clariant), composed of oil hydrocarbons (CAS 918-811-1) and ethanol (CAS 64-17-5); • Dissolvan 974 (Clariant), composed of EO-PO block polymer poly adducts and Bisphenol-A-diglycidyl ether (CAS 68123-18-2) and ethanol (CAS 64-17-5); • Tetrabutylammonium chloride (CAS 1112-67-0), 97% purity; • Cetyltrimethylammonium chloride (CAS 112-02-7), 25% in water; and • Trimethylammonium chloride (CAS 593-81-7), 98% purity.
For this study, the experiments (in triplicate) used between 100.0 and 1000.0 mg·L^−1 of each compound, comparing the results with control tests (absence of the component), all with constant salinity at 3.5% (m·v^−1). Finally, neutralization titration with a standardized NaOH titrant solution was used to determine the effect on the partition equilibrium for four acidic species (the same as in the other examples, except for dicyclohexylacetic acid).
Considering the study with surfactants, the (individual) addition of three species to the control system was evaluated (tetrabutylammonium chloride (TBA), tetramethylammonium chloride (TMA) and cetyltrimethylammonium chloride (CTA)). For this purpose, the surfactants have distinct chemical structures, namely the size of the side chain, and their eventual effect on the partition equilibrium of the acidic species was evaluated.

[4] = Partition equilibrium under the influence of salinity (NaCl), glass reactor, neutralization titration; format: physicochemical; conditions: Salinity 0 (%, m · m^−1) NaCl
[5] = Partition equilibrium in the presence of demulsifiers (Dissolvan 961, Dissolvan 974)
[6] = Partition equilibrium in reactor pressurized with CO2, in presence and absence of alkalinity (NaHCO3, Na2CO3), back titration
Protocol: In the initial tests, 100 mL of heptol and 300 mL of water (with or without salinity) were used, with the addition of acidic species in the organic phase, in order to verify migration to the aqueous phase. As a rule, the system was kept under agitation at 500 rpm for 8 min, followed by rest for 10 min and, finally, collection of 50.0 mL aliquots of the aqueous phase for titrimetric analysis.
A 316 stainless steel alloy reactor (Parr®) (capacity for 600 mL and operational up to 20 MPa pressure) was used. For this purpose, a temperature range between 25° C. and 80° C. and pressure between 0.1 MPa and 1.0 MPa were used, and the reactor was pressurized with CO2. Thus, the results were compared (in terms of migration of the acidic species (%, mol) by means of back titrations) and the influence of pressure and temperature on the partition was estimated, as well as possible synergistic effects with the sources of alkalinity added to the aqueous phase.
Previously, the back titration procedure was internalized and optimized (Example 1), ensuring that the reproducibility of the measurements was adequate (standard deviation values below 10%, for example) and that the recoveries were close to what was expected based on the purity of the reagents (i.e., close to or above 90%). […] Control experiments were performed (measuring the availability of the species in an aqueous medium, without using the reactor) by solubilizing the organic acid directly in the aqueous phase and titrating a 10.0 mL aliquot; the same way, experiments were performed in the reactor based on the standardization of heptol and salinity already discussed (3.5%).

[7] = 52 °C, 0.5 MPa (experiments 9 and 10)

Compound: O=C(O)c1ccccc1 [Benzoic Acid, benzoic acid]
- Migration, Measured ([1]; 20 °C, 0.1 MPa (experiment 12, control)): 57.0 %, mol
- Migration, Increment (related to control) ([1]; 25 °C, 0.5 MPa (experiment 5)): 2.7 %, mol
- Migration, Measured ([1]; 25 °C, 0.5 MPa (experiment 5)): 58.6 %, mol
- Migration, Increment (related to control) ([1]; 38 °C, 0.25 MPa (experiment 1)): 6.9 %, mol
- Migration, Measured ([1]; 38 °C, 0.25 MPa (experiment 1), heptol 70:30, 3.5% salinity): 61.0 %, mol
- Migration, Increment (related to control) ([1]; 38 °C, 0.75 MPa (experiment 3)): 4.6 %, mol
- Migration, Measured ([1]; 38 °C, 0.75 MPa (experiment 3)): 59.7 %, mol
- Migration, Increment (related to control) ([1]; 52 °C, 0.1 MPa (experiment 7)): 16.4 %, mol
- Migration, Measured ([1]; 52 °C, 0.1 MPa (experiment 7)): 66.4 %, mol
- Migration, Increment (related to control) [1, 7]: 14.5 %, mol and 14.3 %, mol
- Migration, Measured ([1]; 52 °C, 0.5 MPa (experiments 9 and 10, centre point)): 65.3 %, mol and 65.2 %, mol
- Migration, Increment (related to control) ([1]; 52 °C, 1 MPa (experiment 8)): 16.8 %, mol
- Migration, Measured ([1]; 52 °C, 1 MPa (experiment 8)): 66.7 %, mol
- Migration, Increment (related to control) ([1]; 66 °C, 0.25 MPa (experiment 2)): 21.2 %, mol
- Migration, Measured ([1]; 66 °C, 0.25 MPa (experiment 2)): 69.2 %, mol
- Migration, Increment (related to control) ([1]; 66 °C, 0.75 MPa (experiment 4)): 19.8 %, mol
- Migration, Measured ([1]; 66 °C, 0.75 MPa (experiment 4)): 68.4 %, mol
- Migration, Increment (related to control) ([1]; 80 °C, 0.5 MPa (experiment 6)): 27.9 %, mol
- Migration, Measured ([1]; 80 °C, 0.5 MPa (experiment 6)): 73.0 %, mol
- Migration, Increment (related to control) ([1]; 80 °C, 1 MPa (experiment 11)): 26.3 %, mol
- Migration, Measured ([1]; 80 °C, 1 MPa (experiment 11, control)): 72.1 %, mol
- Migration, Predicted ([1]; 25 °C, 0.5 MPa (experiment 5)): 57.5 %, mol
- Migration, Predicted ([1]; 38 °C, 0.25 MPa (experiment 1)): 62.5 %, mol
- Migration, Predicted ([1]; 38 °C, 0.75 MPa (experiment 3)): 62 %, mol
- Migration, Predicted ([1]; 52 °C, 0.1 MPa (experiment 7)): 66.1 %, mol
- Migration, Predicted [1, 7]: 66.6 %, mol
- Migration, Predicted ([1]; 52 °C, 1 MPa (experiment 8)): 65.5 %, mol
- Migration, Predicted ([1]; 66 °C, 0.25 MPa (experiment 2)): 69.8 %, mol
- Migration, Predicted ([1]; 66 °C, 0.75 MPa (experiment 4)): 69.8 %, mol
- Migration, Predicted ([1]; 80 °C, 0.5 MPa (experiment 6)): 72.7 %, mol
- Migration, Predicted ([1]; 80 °C, 1 MPa (experiment 11)): 66.6 %, mol
- Migration ([2]; Absence of ions, salinity 3.5%): 82.0 %, mol
- Migration ([2]; Calcium 400 mg · L^−1, salinity 3.5%): 80.0 %, mol
- Migration ([2]; Calcium 1200 mg · L^−1, salinity 3.5%): 56.7 %, mol
- Migration ([2]; Calcium 2600 mg · L^−1, salinity 3.5%): 56.7 %, mol
- Migration ([2]; Strontium 400 mg · L^−1, salinity 3.5%): 83.0 %, mol
- Migration ([2]; Strontium 1200 mg · L^−1, salinity 3.5%): 83.0 %, mol
- Migration ([2]; Strontium 2600 mg · L^−1, salinity 3.5%): 83.0 %, mol
- Extent of salting out effect in the presence of calcium ([2]; calcium ions, salinity 3.5%): greater than 30%
- Migration to the aqueous phase in the presence of strontium ([2]; strontium ions): above 80 % (m·v^−1)
- Migration ([3]; Absence of surfactant, salinity 3.5%): 82.0 %, mol
- Migration ([3]; CTA100 (cetyltrimethylammonium chloride 100 mg · L^−1)): 57.1 %, mol
- Migration ([3]; CTA1000 (1000 mg · L^−1)): 66.3 %, mol
- Migration ([3]; TBA100 (tetrabutylammonium chloride 100 mg · L^−1)): 55.5 %, mol
- Migration ([3]; TBA1000 (1000 mg · L^−1)): 54.8 %, mol
- Migration ([3]; TMA100 (trimethylammonium chloride 100 mg · L^−1)): 63.4 %, mol
- Migration ([3]; TMA1000 (1000 mg · L^−1)): 63.7 %, mol
- Increase in migration to the aqueous phase with CTA ([3]; surfactant CTA, 1000 mg·L^−1): ~10%
- Effect of TBA on migration to the aqueous phase ([3]; surfactant TBA, different concentrations): no significant effect
- Increase in affinity for the hydrophilic phase with TMA ([3]; surfactant TMA, from 100 mg·L^−1): approximately 10%
- Migration [4]: 82.9 %, mol
- Migration ([5]; Absence of ions (no demulsifier), salinity 3.5%): 82.0 %, mol
- Migration ([5]; D961 50 mg · L^−1): 62.3 %, mol
- Migration ([5]; D961 100 mg · L^−1): 70.3 %, mol
- Migration ([5]; D961 1000 mg · L^−1): 68.4 %, mol
- Migration ([5]; D974 50 mg · L^−1): 63.1 %, mol
- Migration ([5]; D974 100 mg · L^−1): 57.3 %, mol
- Migration ([5]; D974 1000 mg · L^−1): 59.7 %, mol
- Migration ([6]; 25° C. and 1.0 MPa CO2, no alkalinity): 64.4 % mol
- Migration ([6]; 80° C. and 1.0 MPa CO2, no alkalinity): 59.3 % mol
- Migration ([6]; Na2CO3 + NaHCO3, 25° C. and 0.1 MPa): 49.3 % mol
- Migration ([6]; Na2CO3 + NaHCO3, 25° C. and 1.0 MPa CO2): 100 % mol
- Migration ([6]; Na2CO3 + NaHCO3, 80° C. and 1.0 MPa CO2): 88.3 % mol
- Migration ([6]; NaHCO3, 25° C. and 0.1 MPa): 53.6 % mol
- Migration ([6]; NaHCO3, 25° C. and 1.0 MPa CO2): 93.3 % mol
- Migration ([6]; NaHCO3, 80° C. and 1.0 MPa CO2): 88.9 % mol and 88.6 % mol
- Migration ([6]; Reference (heptol + 3.5% NaCl), no alkalinity): 82.0±3.0 % mol and 82 % mol
